Source: patent publication US9498513B2, “Antimicrobial bacteria strains and uses thereof” (priority 2010, dated 2016)

Assays:
S. aureus (MRSA) = experiment: Antimicrobial activity against susceptible and resistant strains (dilution); assay type: cell-based, Staphylococcus aureus; conditions: given as dilution ratio; antibiotics 1.28 mg/ml
Experimental: (§1) A concentrated antimicrobial compound (CAC) was prepared as an antimicrobial agent. 2.1 L of an overnight bacterial culture of G346a was centrifuged at 10,000× g for 20 min, and then subject to 0.2 μm filtration. The supernatant was subject to 10-15% TCA precipitation for 1 hour, and then centrifugation at 4,000× for 20 min. The pellet was re-suspended in 3 mL 50 mM NH4HCO3, and then neutralized with 320 μL NH4OH. The resulting concentrated antimicrobial compound (CAC) was tested for its antimicrobial activity against susceptible and resistant strains as shown in TABLE 5.

A. Baumannii (MDR) = experiment: as above; assay type: cell-based, Acinetobacter baumannii; conditions: given as dilution ratio; antibiotics 1.28 mg/ml
Experimental: as §1

Row | SMILES | antimicrobial activity S. aureus (MRSA) (S. aureus (MRSA)) | antimicrobial activity A. Baumannii (MDR) (A. Baumannii (MDR))
1 | CC1(C)S[C@@H]2[C@H](NC(=O)C(C(=O)O)c3ccccc3)C(=O)N2[C@H]1C(=O)O (stereo partly shown) [Carbenicillin] | No | No Inhibition
2 | CC1(C)S[C@@H]2[C@H](NC(=O)[C@H](N)c3ccccc3)C(=O)N2[C@H]1C(=O)O [Ampicillin] | No | No Inhibition
